These are literature values, as cited in paper PMC10033663, “Acute pharmacological profile of 2C-B-Fly-NBOMe in male Wistar rats—pharmacokinetics, effects on behaviour and thermoregulation” (Frontiers in Pharmacology, 2023).

SMILES strings stand for the structures. Where two headings read alike, the source gives them in different places.

The conditions of data set [1]: 50 mg/kg s. c., ref Rohanová et al., 2008, cited from earlier work.
Details of data set [2]: method as in ref Adams and Geyer, 1982; Páleníček et al., 2013; Páleníček et al., 2008. The following applies: ref Adams and Geyer, 1982, Páleníček et al., 2013, 2008; cited from earlier work.
For data set [3] the following is noted: rat blood serum; 1 mg/kg, peroral administration; ref Baralla et al. (2019); cited from earlier work.
Data set [4] deals with rats. On the set-up: method as in Nakamura et al., 2018. The following applies: 0.25 intraperitoneally (i. p.), ambient temperature 29°C, ref Nakamura et al., 2018; cited from earlier work.
On the set-up of data set [5]: method as in Gatch et al., 2017; Wojtas et al., 2021. The conditions noted are these: administered i. p.; ref Gatch et al., 2017; Wojtas et al., 2021; cited from earlier work.
The subject of data set [6] is rats. Further details: method as in Halberstadt and Geyer, 2017. The following applies: ref Halberstadt and Geyer, 2017; cited from earlier work.
Details of data set [7]: method as in ref Šíchová et al., 2022. The following applies: 5 mg/kg, ref Šíchová et al., 2022, cited from earlier work.
Details of data set [8]: method as in ref Šíchová et al., 2022. The conditions noted are these: 5 mg/kg; individually-housed animals; ref Šíchová et al., 2022; cited from earlier work.
Details of data set [9]: method as in ref Šíchová et al., 2022. The following applies: compared with 2C-B-Fly-NBOMe; ref Šíchová et al., 2022; cited from earlier work.
Details of data set [10]: method as in ref Šíchová et al., 2022. The conditions noted are these: ref Šíchová et al., 2022; cited from earlier work.
The test system of data set [11] is rats. Further details: method as in Miliano et al. (2019). The conditions noted are these: ref Miliano et al. (2019), cited from earlier work.
Data set [12] has as its system rats. The conditions noted are these: 0.5 mg/kg i. p.; female and male rats; ref Miliano et al. (2019); cited from earlier work.
The subject of a further data set is mice. On the set-up: method as in Halberstadt, 2017. The conditions noted are these: ref Halberstadt, 2017, cited from earlier work; for locomotion: mice.

In the case of `COc1cc(CCN)c(OC)cc1Br` [2C-B, 4-Bromo-2,5-dimethoxyphenethylamine], the “time for which presence was detectable” value in data set [1] (all collected tissues) is “up to 5 h”. Moreover, the “time of peak concentration” value in [1] (blood serum) is given as not above 30 min; in data set [1] (brain, liver, and lung tissue), not above 60 min. Moreover, the “biphasic effect (low and high doses, temporal onsets)” value in data set [2] is recorded as “biphasic effect”.
Take `NCCc1c2c(cc3c1OCC3)OCC2` [2C-FLY, 2-(2,3,6,7-tetrahydrofuro [2,3-f][1]benzofuran-4-yl)ethanamine]: the “time of peak concentration” value in data set [3] was 60 min.
`COc1cc(CCNCc2ccccc2OC)c(OC)cc1Br` [25B-NBOMe]: the body temperature entry in the data set with rats [4] is “hyperthermia, but only in higher ambient temperature”. In addition, the locomotor activity entry in data set [5] is given as “dose-dependent decrease in locomotor activity”.
Turning to `COc1cc(CCNCc2ccccc2OC)c(OC)cc1Cl` [25C-NBOMe], the locomotor activity entry in data set [5] was “dose-dependent decrease in locomotor activity”.
Turning to `COc1cc(CCNCc2ccccc2O)c(OC)cc1C#N` [25CN-NBOH], the PPI entry with rats [6] was “tendencies to disrupt PPI”.
For the compound `COc1cc(CCNCc2ccccc2OC)c(OC)cc1C#N` [25CN-NBOMe], the figures for the half-life in data set [7] (blood serum) and in [7] (brain tissue) were 1.88 h and 2.28 h, respectively. Also, in data set [8], the body temperature entry is on record as “significant hypothermic effect”. Also, the locomotion entry in data set [9] is “similar, yet less pronounced decrease in locomotion”. In addition, the PPI result in data set [10] is listed as “affected PPI only in the highest dose of 5 mg/kg in the 15 min onset”.
Take `COc1cc(CCNCc2ccccc2OC)c(OC)cc1I` [25I-NBOMe, 2-(4-iodo-2,5-dimethoxyphenyl)-N-[(2-methoxyphenyl)methyl]ethanamine]: the ASR result in the data set with rats [11] (highest dose (1 mg/kg i. p.)) was “significant decrease of ASR”. In addition, the PPI result with rats [11] was “dose-dependent inhibition of PPI”. Further, the body temperature result in the data set with rats [12] is listed as “induced hyperthermia within 35–65 min in female rats, but not in males”. The locomotion result in the data set on mice (0.1 mg/kg s. c., 60 min temporal onset) is “significant hyperlocomotion”; in the data set with mice (3 mg/kg s. c.) it was “hypolocomotion”. Moreover, the “biphasic effect on locomotion by route” value in the data set with mice (s. c. versus i. p.) is on record as “induced a biphasic effect after s. c. application, but interestingly not after i. p. injection”. The locomotor activity entry in data set [5] was “dose-dependent decrease in locomotor activity”.
For the compound `CC(N)Cc1c2c(cc3c1OCC3)OCC2` (stereo not drawn) [FLY, 1-(2,3,6,7-tetra-hydrofuro [2,3-f][1]benzofuran-4-yl)propan-2-amine], in data set [3], the “time of peak concentration” value was 30 min.
Regarding `CCN(CC)C(=O)[C@@H]1C=C2c3cccc4[nH]cc(c34)C[C@H]2N(C)C1` [LSD, lysergic acid diethylamide], in [2], the “biphasic effect (low and high doses, temporal onsets)” value is listed as “biphasic effect”.
In the case of `COc1cc(CCN)cc(OC)c1OC` [mescaline], the “biphasic effect (low and high doses, temporal onsets)” value in [2] was “biphasic effect”.
